The source of these data is ChEMBL document CHEMBL5126646, “Synthesis and Biological Evaluation of Aurachin D Analogues as Inhibitors of Mycobacterium tuberculosis Cytochrome bd Oxidase” (ACS Med Chem Lett, 2022).

Data set [1] relates to Mycobacterium tuberculosis. In words: Antitubercular activity against Mycobacterium tuberculosis mc26230 incubated for 7 days. It is filed as functional. The note with it: mc26230, 168 h, time 7 day.
Data set [2] relates to Mycolicibacterium smegmatis. In words: Growth inhibition of Mycobacterium smegmatis mc2155 harboring deltaqcr mutant incubated for 48 hrs under shaking condition. The format is functional.
Data set [3] in a line: Growth inhibition of nonpathogenic Mycobacterium smegmatis mc2155 incubated for 48 hrs under shaking condition. As to conditions: mycolicibacterium smegmatis.
Data set [4] can be described thus: Inhibition of Mycobacterium tuberculosis cytochrome bd oxidase over expressed in inverted membrane vesicles of Mycobacterium smegmatis deltacydAB assessed as reduction in malate-induced increase in oxygen consumption rate measured after 60 secs in presence of cytochrome bcc-aa3 complex inhibitor TB47 by fluorespirometry. It is filed as cell membranes, Membrane vesicle.

Data set [5] in a line: Inhibition of Mycobacterium tuberculosis cytochrome bd oxidase over expressed in inverted membrane vesicles of Mycobacterium smegmatis mc2155 deltacydAB assessed as reduction in malate-induced increase in oxygen consumption rate measured at 120 secs in presence of cytochrome bcc-aa3 complex inhibitor TB47 by fluorespirometry. It is filed as cell membranes, Membrane vesicle.

≈ marks a conversion by molar mass, not a printed value. A value given as a limit tells only on which side of the number the result lay.

By IC50 is commonly meant the concentration at which inhibition is half-maximal. On to `Cc1[nH]c2ccccc2c(=O)c1Cc1ccccc1`, for which the MIC is 32 µM (≈ 7.98 µg/mL) in data set [1], > 512 µM in data set [2] and > 512 µM in data set [3]. Further, the IC50 in data set [4] worked out at 4.8 µM.
Consider `CC(C)=CCC/C(C)=C/Cc1c(C)[nH]c2ccc(N)cc2c1=O`, for which the MIC in data set [1], in data set [2] and in data set [3] was > 512 µM throughout. For the same molecule, the IC50 in data set [4] was 33 µM.
For the molecule `COc1cccc2c(=O)c(C/C=C(\C)CC/C=C(\C)CCC=C(C)C)c(C)[nH]c12`, the values for the MIC in data set [1], in data set [2] and in data set [3] were 64 µM (≈ 25.2 µg/mL), > 512 µM and > 512 µM, respectively. The IC50 in data set [4] is 1.3 µM.
With `CC(C)=CCC/C(C)=C/CC/C(C)=C/Cc1c(C)[nH]c2ccc([N+](=O)[O-])cc2c1=O`, the MIC in data set [1], in data set [2] and in data set [3] was > 512 µM each time. Further, the IC50 in data set [4] came out at 1.8 µM.
Regarding `CC(C)=CCC/C(C)=C/CC/C(C)=C/Cc1c(C)[nH]c2ccc(N=[N+]=[N-])cc2c1=O`, the results for the MIC in data set [1], in data set [2] and in data set [3] were 512 µM (≈ 207 µg/mL), > 512 µM and > 512 µM, respectively. In data set [4], the concentration for half-maximal inhibition (IC50) is 4.7 µM.
For the molecule `CC(C)=CCC/C(C)=C/CC/C(C)=C/Cc1c(C)[nH]c2cccc(O)c2c1=O`, the MIC in data set [1] was 256 µM (≈ 97.2 µg/mL); in data set [2] it was > 512 µM; in data set [3], > 512 µM. The IC50 in data set [4] was 0.61 µM.
Turning to `CC(C)=CCC/C(C)=C/CC/C(C)=C/Cc1c(C)[nH]c2cc(C(F)(F)F)ccc2c1=O`, the MIC in data set [1], in data set [2] and in data set [3] was > 512 µM in each case. Moreover, the IC50 in data set [4] was > 1000 µM.
As to `CC(C)=CCC/C(C)=C/CC/C(C)=C/Cc1c(C)[nH]c2cc(N)ccc2c1=O`, the MIC in data set [1], in data set [2] and in data set [3] was > 512 µM each time. The IC50 in data set [4] worked out at 1.8 µM.
`COc1ccc2c(=O)c(C/C=C(\C)CC/C=C(\C)CCC=C(C)C)c(C)[nH]c2c1`: the MIC in data set [1], in data set [2] and in data set [3] was > 512 µM in each case. Besides, the concentration for half-maximal inhibition (IC50) in data set [4] came out at 0.13 µM.
As to `CC(C)=CCC/C(C)=C/CC/C(C)=C/Cc1c(C)[nH]c2cc(C)ccc2c1=O`, the MIC in data set [1], in data set [2] and in data set [3] was > 512 µM in each case. Also, the half-inhibitory concentration (IC50) in data set [4] was 31 µM.
Take `CC(C)=CCC/C(C)=C/CC/C(C)=C/Cc1c(C)[nH]c2ccc(F)cc2c1=O`: the MIC in data set [1] was 8 µM (≈ 3.05 µg/mL); in data set [2] it was > 512 µM; in data set [3], > 512 µM. Also, the IC50 in data set [4] was found to be 0.25 µM.
Regarding `COc1cccc2[nH]c(C)c(C/C=C(\C)CC/C=C(\C)CCC=C(C)C)c(=O)c12`, the figures for the MIC in data set [1], in data set [2] and in data set [3] were 32 µM (≈ 12.6 µg/mL), > 512 µM and > 512 µM, respectively. Further, the IC50 in data set [4] came to 0.36 µM.
Consider `CC(C)=CCC[C@@H](C)CCc1c(C)[nH]c2ccccc2c1=O`, for which the MIC in data set [1] was 4 µM (≈ 1.19 µg/mL); in data set [2] it was > 512 µM; in data set [3], > 512 µM. In data set [4], the IC50 was found to be 0.35 µM.
As for `CC(C)=CCC/C(C)=C/CC/C(C)=C/Cc1c(C)[nH]c2ccc(O)cc2c1=O`, the values for the MIC in data set [1], in data set [2] and in data set [3] were 256 µM (≈ 97.2 µg/mL), > 512 µM and > 512 µM, respectively. The IC50 in data set [4] turned out to be 0.59 µM.
With `CC(C)=CCC[C@@H](C)CCc1c(C)[nH]c2cc(N)ccc2c1=O`, the MIC in data set [1] was 512 µM (≈ 160 µg/mL); in data set [2], > 512 µM; in data set [3], > 512 µM. In addition, the IC50 in data set [4] turned out to be 52 µM.
As to `CC(C)=CCC/C(C)=C/CC/C(C)=C/Cc1c(C)[nH]c2ccc(N)cc2c1=O`, the MIC in data set [1], in data set [2] and in data set [3] was > 512 µM each time. The IC50 in data set [4] is 5 µM.
As to `CC(C)=CCC/C(C)=C/CC/C(C)=C/Cc1c(C)[nH]c2ccc(Cl)cc2c1=O`, the MIC in data set [1], in data set [2] and in data set [3] was > 512 µM throughout. For the same molecule, the IC50 in data set [4] was determined as 9 µM.
In the case of `CC(C)=CCC/C(C)=C/CC/C(C)=C/Cc1c(C)[nH]c2cc(F)ccc2c1=O`, the figures for the MIC in data set [1], in data set [2] and in data set [3] were 256 µM (≈ 97.7 µg/mL), > 512 µM and > 512 µM, respectively. Besides, the IC50 in data set [4] amounted to 0.37 µM.
As for `CC(C)=CCC/C(C)=C/CC/C(C)=C/Cc1c(C)[nH]c2cc(Cl)cc(Cl)c2c1=O`, the MIC in data set [1], in data set [2] and in data set [3] was > 512 µM throughout. Moreover, the IC50 in data set [4] amounted to 4.6 µM.
For `COc1ccc2[nH]c(C)c(C/C=C(\C)CC/C=C(\C)CCC=C(C)C)c(=O)c2c1`, the MIC in data set [1] is 256 µM (≈ 101 µg/mL); in data set [2] it was > 512 µM; in data set [3], > 512 µM. For the same molecule, the IC50 in data set [4] is 0.67 µM.
Regarding `CC(C)=CCC/C(C)=C/CC/C(C)=C/Cc1c(C)[nH]c2cc(Cl)ccc2c1=O`, the MIC in data set [1], in data set [2] and in data set [3] was > 512 µM each time. Further, the IC50 in data set [4] is > 1000 µM.
In the case of `CC(C)=CCC/C(C)=C/Cc1c(C)[nH]c2ccccc2c1=O`, the MIC in data set [1], in data set [2] and in data set [3] was > 512 µM in each case. Besides, in data set [4], the half-maximal inhibitory concentration (IC50) was found to be 1.1 µM.
In the case of `CC(C)=CCc1c(C)[nH]c2ccccc2c1=O`, the MIC in data set [1] is 32 µM (≈ 7.27 µg/mL); in data set [2], > 512 µM; in data set [3] it was > 512 µM. Also, the half-maximal inhibitory concentration (IC50) in data set [4] came to 5.8 µM.
Regarding `CC(C)=CCC/C(C)=C/CC/C(C)=C/Cc1c(C)[nH]c2cccc(F)c2c1=O`, the MIC in data set [1] is 256 µM (≈ 97.7 µg/mL); in data set [2] it was > 512 µM; in data set [3], > 512 µM. Besides, the IC50 in data set [4] was 7.5 µM.
Take `CC(C)=CCC/C(C)=C/CC/C(C)=C/Cc1c(C)[nH]c2ccccc2c1=O` [AURACHIN D]: the IC50 in data set [5] amounted to 0.15 µM. The MIC was 8 µM (≈ 2.91 µg/mL) in data set [1], > 512 µM in data set [2] and > 512 µM in data set [3].
